Tests used:
[1] = tested on: hemoglobin or ferritin-related stores; settings: given in early stage of iron deficiency (ferritin below 100 ug/L or transferrin saturation below 20%)
[2] = tested on: hemoglobin or ferritin-related stores; settings: cited from earlier work

## iron dextran
[1]
  hemoglobin response: without a concomitant increase in hemoglobin
  serum ferritin response: rise in serum ferritin
[2]; dialysis-associated anemia, within the first 90 days after infusion, previous retrospective analysis
  quantitative iron utilization for hemoglobin or ferritin-related stores: highly variable and incomplete within the first 90 days
[2]; iron deficiency anemia and normal renal function, early after intravenous infusion
  recovery of iron for hemoglobin synthesis or iron stores: incomplete
